Residues, ends and D or L forms follow the SMILES beside them. *: point of attachment. Cbz = O=C(OCc1ccccc1)*
Legend:
[1] = test system: ATZ in the HTO/Z cell line; test: ATZ levels in HTO/Z cells in the presence of proteasomal inhibitors with or without CBZ; assay type: cell-based, human; settings: for levels of ATZ with proteasomal inhibitor alone: no CBZ; for levels of insoluble ATZ in the presence of CBZ: proteasomal inhibitor added for last 6 hours
Procedure: For experiments in which proteasomal inhibitors were used, MG132 was used at 30 μM and lactacystin at 10 μM for the last 6 hours of the incubation with CBZ or control. Cells that were incubated with MG132 or lactacystin alone served as control to validate that the proteasome was inhibited. For investigation of LC3 conversion, lysosomal inhibitors (E64D and pepstatin A at 20 μg/ml) were added to the medium for the last 4 hours of the incubation with CBZ or control. […] If the number of separate experiments done in the cell line models is not specifically indicated in the text or figure legend, at least 3 separate experiments were done in each case.
(§1) For immunoblot analysis to detect AT, GAPDH or LC3, cells were lysed in 50 mM Tris-HCl, 150 mM NaCl, 1% NP-40, pH 8.0. Protein levels were quantified using the BCA protein assay (Pierce Biotechnology, Rockford, Ill.). 10-50 μg samples were loaded onto 7.5% precast gels. PVDF membranes were blocked in TBS, 0.5% Tween 20 (TBST), 5% milk and then incubated with primary antibody in 5% milk TBST solution. Horseradish peroxidase anti-goat Ig or anti-mouse Ig (Jackson Labs, Bar Harbor, Me.) were used as secondary antibodies in TBST. Blots were visualized with Super Signal West Dura or West Femto from Pierce.

[2] = test system: ATZ in the HTO/Z cell line; test: Steady state levels of ATZ in the HTO/Z cell line (immunoblot of insoluble and soluble fractions); assay type: cell-based, human; settings: HTO/Z cells
Description: Cell Lines The human epidermal HeLa cell line with doxycycline-regulated expression of ATZ (HTO/Z) has been described previously (1). HTO/M and HTO/Saar are HeLa cell lines with doxycycline-regulated expression of wild type AT and the AT Saar variant, respectively (1). A murine embryonic fibroblast cell line (MEF) with targeted disruption of Atg5 (2) was engineered for stable expression of ATZ using the previously described pRc/RSV-ATZ expression plasmid (3). A wild type MEF cell line was also engineered for stable expression of ATZ in the same way to serve as control. For experiments with CBZ, the inducible cell lines were cultured in the absence of doxycycline for at least 4 weeks for maximal expression of AT. The cells were then subcultured into separate monolayers in fresh complete growth medium and incubated for 48 hours in the absence or presence of CBZ or rapamycin (RAP). CBZ or RAP were added to the growth medium. The duration of incubation with CBZ was determined to be optimal at 48 hours based on experiments in which the duration was varied from 12 to 72 hours. Doses of CBZ were based on previous studies of its effects in cell lines (5,6). Doses of RAP were based on previous positive effects on autophagic disposal of polyglutamine-repeat proteins (7). After the incubation cells were homogenized and cell homogenates separated into insoluble and soluble fractions according to our previously established technique (8). Samples of 20 μgs each were subjected to immunoblot analysis for AT, BiP and GAPDH.
as §1

ATZ in the liver = test: Hepatic load of ATZ in vivo in PiZ×GFP-LC3 mice (immunoblot, globule histology); parameters: species or system mouse; settings: PiZ mice, 2 mg/kg/day intraperitoneal for 2 weeks, FIG. 5C
Description: Transgenic Mice PiZ mice that have been bred into the C57/BL6 background have been described previously (1). For the second and third series of experiments with CBZ we used PiZ mice that were re-derived onto the FVB/N background for a move into a new animal facility. The transgene that was used to generate the PiZ mouse is a genomic fragment of DNA that contains the coding regions of the ATZ gene together with introns and ˜2 kilobases of upstream and downstream flanking regions (10). […] In this perspective it is not an exact phenocopy of the classical form of AT deficiency. In particular it cannot be a model for the loss-of-function mechanisms associated with the classical form of AT deficiency. It is known to have abundant expression of ATZ in hepatocytes and other cell types that express ATZ in humans (11). In the liver there are abundant ATZ-containing intrahepatocytic globules and inflammation that is characteristic of what is seen in the human liver (11,12). […] Taken together, these observations indicate that the PiZ mouse is an appropriate model for the gain-of-toxic function mechanism that is responsible for liver damage in the classical form of AT deficiency. Indeed, the fact that these mice are endowed with endogenous AT function and therein normal levels of AT in the serum and body fluids make them an even more ‘pure’ model for liver damage by gain-of-toxic function. PiZ×GFP-LC3 mice, which generated green fluorescent autophagosomes, have been described previously (2). PiZ×IKKβ.hep were generated by mating of PiZ to IKKβ.hep, which has conditional hepatocyte-specific disruption of NF.B activation (M. Karin, 17). There is increased injury in the liver of these mice as evidenced by the hepatic hydroxyproline content, 153.3% of that in the PiZ mouse (FIG. 7).
Histology Sections of liver tissue were stained with hematoxylin and eosin, PAS, PAS after diastase treatment, TUNEL, PCNA, Ki67 and Sirius Red using standard techniques (18). Previous methods for staining with antibody to smooth muscle actin were used (19). Each was examined by the pathologist (GM) who was completely blinded to the experimental protocol. […] The number of inflammatory nodules, AT-containing globules and autophagosomes were each quantified blindly by counting cells in 6 microscopic fields of 10 different sections for each liver. The number of nuclei, as determined by Hoechst staining, was used to exclude the possibility that different numbers of cells were counted in liver sections from mice treated with CBZ as compared to controls. Hepatic hydroxyproline concentration was determined by a well-established protocol (20,21). […]
For immunoblot on liver, the liver was snap frozen in liquid nitrogen and stored at −80° C. […] Total protein concentration was measured by BCA assay (Pierce). […]

[3] = 48 hours incubation, immunoblot

CC(C)C[C@@H](C=O)NC(=O)[C@H](CC(C)C)NC(=O)[C@H](CC(C)C)NC(=O)OCc1ccccc1 [MG132] (Cbz-Leu-Leu-Leu-aldehyde)
levels of ATZ with proteasomal inhibitor alone [1]: Increased levels
levels of insoluble ATZ in the presence of CBZ [1]: no effect

NC(=O)N1c2ccccc2CC(=O)c2ccccc21 [OBZ, 10,11-dihydro-10-oxo-5H-dibenz[b,f]azepine-5-carboxamide]
steady-state levels of ATZ, insoluble fraction [2, 3]: marked decrease
steady-state levels of ATZ, soluble fraction [2, 3]: minimal effect
lowest dose with evident effect on insoluble ATZ ([2]; 48 hrs, FIG. 9): 0.1 µM

CC(=O)N[C@@H](CSC(=O)[C@]1([C@@H](O)C(C)C)NC(=O)[C@H](C)[C@@H]1O)C(=O)O [lactacystin]
levels of ATZ with proteasomal inhibitor alone [1]: Increased levels
reversal of the effect of CBZ on levels of soluble ATZ ([1]; lactacystin 10 μM for last 6 hours of CBZ incubation, mean SD, n=3): 23.1±14.0%
levels of insoluble ATZ in the presence of CBZ [1]: no effect

CO[C@H]1C[C@@H]2CC[C@@H](C)[C@@](O)(O2)C(=O)C(=O)N2CCCC[C@H]2C(=O)O[C@H]([C@H](C)C[C@@H]2CC[C@@H](O)[C@H](OC)C2)CC(=O)[C@H](C)/C=C(\C)[C@@H](O)[C@@H](OC)C(=O)[C@H](C)C[C@H](C)/C=C/C=C/C=C/1C [rapamycin]
hepatic ATZ levels (ATZ in the liver): no effect
ATZ levels (insoluble and soluble fractions) ([2]; 48-hour incubation, FIG. 1B): no effect

Source: patent US9511074B2, “Methods of treating disorders associated with protein polymerization” (UNIVERSITY OF PITTSBURGH—OF THE COMMONWEALTH SYSTEM OF …, priority 2009, dated 2016)
